{
  "source": "patent US20250114377A1",
  "about": "“TWO-PRONGED TREATMENT FOR NIEMANN PICK TYPE C DISEASE” (UNIVERSITY OF NOTRE DAME DU LAC, priority 2022, published 2025)",
  "key": {"NPC mutant mice": {"system": "NPC mutant mice", "assay": "Therapeutic administration of 27-HC in two transgenic strains of mice with NPC1 mutations (summary)", "assay_type": "in vivo", "text": "Mutations in the NPC1 gene affect two independent lysosomal functions. The first is the generation of lysosomal tubules as a mechanism to deliver intracellular cholesterol to other membrane-bound compartments. Because this function is impaired in NPC disease, we investigated the protein components necessary for tubule projection. We identified 27-HC as a signaling molecule that stimulates lysosomal tubulation and is not provided properly to lysosomal membrane to elicit tubulation in NPC disease. To correct this defect, we provide pure 27-HC in a cocktail that bypasses endocytosis. […] We have also tested this therapy in two different transgenic strains of mice with NPC1 mutations. […] Because we know the molecular target for 27-HC (StARD9), we tested 27-HC treatment in mice where we removed the StARD9 gene. […] This confirms the molecular target for 27-HC treatment and is consistent with our proposed model for the defects in NPC disease. Independent of the role for NPC1 in lysosomal tubulation, NPC1 is the “receptor” for the pro-apoptotic protein STING. STING is a signaling molecule that is activated by cell insults, including defective cholesterol transport. Once STING is activated, it triggers programmed cell death pathways. Counteracting STING activation, STING is silenced by binding to lysosomes, which leads to STING degradation and inactivation of this pathway. This silencing is required to prevent STING activation to proceed long-term. We recently discovered that the “receptor” on lysosomes that drives STING silencing is also NPC1. In cells mutant for NPC1, STING silencing is impaired, thereby leading to programmed cell death. As a result, NPC1 mutations cause cell death in two different ways. They cause loss of lysosomal tubulation, and they cause perpetual activation of STING.\nWe further propose that NPC1 is required for two functions in cells. The first is cholesterol transport from the lysosome to ER. If this activity is impaired, cells are “starved” of cholesterol in the ER. This has consequences for cholesterol metabolism and activates STING. Second, NPC1 in the lysosome is the receptor for STING that is required for STING silencing. In the absence of NPC1, STING remains active after initial activation (Priming) but also amplifies the responses including apoptosis. The dual roles of NPC1 are consistent with results across the NPC field. First, this explains why our StARD9 (−/−) mice are less severe than NPC1 (−/−) mice. NPC1(−/−) mice cause STING activation and impair STING silencing. […] Second, NPC1 (−/−) mice are more severe than NPC1 (I1061 T/I1061 T) mice because the NPC1 […] mice must reduce STING activation and retain some STING silencing compared to nulls."}, "[1]": {"system": "StARD9(−/−)/NPC1 (I1061T/I1061T) mice", "assay": "27-HC treatment of mice mutant for both NPC1 and StARD9 / StARD9 knock-out mice", "assay_type": "in vivo", "settings": "5 mg/kg three times per week oral gavage; vs NPC1 (I1061T/I1061T) mice; p=0.0001", "procedure": "FIG. 12. Impact of 27-HC Treatment on NPC1 (I1061T/I1061T)/StARD9 (−/−) Mice. Kaplan-Meier lifespan analysis of NPC1 (I1061T/I1061T) mice (solid line) to StARD9(−/−)/NPC1 (I1061T/I1061T) mice (dashed line) each treated with 5 mg/kg 27-HC three times per week by oral gavage.\nMutations in the NPC1 gene affect two independent lysosomal functions. The first is the generation of lysosomal tubules as a mechanism to deliver intracellular cholesterol to other membrane-bound compartments. Because this function is impaired in NPC disease, we investigated the protein components necessary for tubule projection. We identified 27-HC as a signaling molecule that stimulates lysosomal tubulation and is not provided properly to lysosomal membrane to elicit tubulation in NPC disease. To correct this defect, we provide pure 27-HC in a cocktail that bypasses endocytosis. […] We have also tested this therapy in two different transgenic strains of mice with NPC1 mutations. […] Because we know the molecular target for 27-HC (StARD9), we tested 27-HC treatment in mice where we removed the StARD9 gene. […] This confirms the molecular target for 27-HC treatment and is consistent with our proposed model for the defects in NPC disease. Independent of the role for NPC1 in lysosomal tubulation, NPC1 is the “receptor” for the pro-apoptotic protein STING. […]"}, "[2]": {"system": "StARD9 mutant (null or truncation mutant) cells", "assay": "Rescue of lysosomal tubulation by 27-HC in StARD9 mutant cells (FIG. 5)", "assay_type": "cell-based", "settings": "27-HC in a cocktail that bypasses receptor-mediated endocytosis", "text": "FIG. 5. Impact of NPC1 and StARD9 Mutations on Rescue of Lysosomal Tubulation by 27-Hydroxycholesterol (27-HC). The ability of 27-HC to rescue lysosomal tubulation after depletion of NPC1 (shRNA-NPC1) or StARD9 (shRNA-STARD9) was compared to cells expressing the NPC1 (I1061T)-eGFP mutant (I1061T) or a eGFP-StARD9 construct expressing amino acids 1-4483 (STARD9-ΔSTART). ***—p<0.005; ns (not significant).\n(§1) To test this idea, we treated either NPC1 mutant (null or I1061T) or StARD9 mutant (null or truncation mutant) cells with 27-HC in a cocktail that delivers it into the cytoplasm independent of receptor-mediated endocytosis. […] Next, we treated NPC1(−/−) mice with 27-HC by i.p. delivery."}, "NPC1(−/−) mice": {"system": "NPC1(−/−) mice", "assay": "27-HC treatment of NPC1(−/−) mice by intraperitoneal injection", "assay_type": "in vivo", "settings": "i.p.", "procedure": "FIG. 7A-C. Behavioral Analysis of NPC1(−/−) Mice Treated with 27-HC. NPC1(−/−) treated with 0 mg/kg (●) or 10 mg/kg (▴) 27-HC once per week by intraperitoneal injection were tested using (A) Tremor Scores p=0.01), (B) Rotarod Analysis (p=0.0037) or (C) Coathanger Tests (p=0.0229).\nFIG. 8. Impact of 27-HC Treatment on NPC1 (−/−) Mice. Immunohistochemical staining of cerebella stained for calbindin after treatment with either Omg/kg or 10 mg·kg 27-HC once per week by intraperitoneal injection. Brown staining indicates Purkinje cell survival in lobes of the cerebellum (I, V, X).\nFIG. 9A-C. Impact of 27-HC Treatment on NPC1 (−/−) Mice. Quantification of Purkinje cells preservation at days (A) P42, (B) P63 or (C) P77. Lobes are binned as I-V, VI-VII, VIII, or IX-X. A Student's t-test was calculated on total Purkinje cell counts from each timepoint (p-values).\nFIG. 10. Impact of 27-HC Treatment on NPC1 (−/−) Mice. Kaplan-Meier lifespan analysis of NPC1 (−/−) mice treated with either 0 mg/kg (dashed line) or 10 mg/kg (solid line) 27-HC.\nas §1"}, "[3]": {"system": "NPC1 (I1061T/I1061T) mice", "assay": "27-HC treatment of NPC1 (I1061T/I1061T) mice by oral gavage", "assay_type": "in vivo", "procedure": "FIG. 11. Impact of 27-HC Treatment on NPC1 (I1061T/I1061T) Mice. Kaplan-Meier lifespan analysis of NPC1 (I1061T/I1061T) mice treated with either 0 mg/kg (dashed line) or 5 mg/kg (solid line) 27-HC three times per week by oral gavage.\nFIG. 13. Impact of 27-HC Treatment on Lipid Accumulation in Livers of Male and Female Mice. Comparing livers of wild-type vs. NPC1 (I1061T/I1061T) mice, lipid accumulations (black arrows) are apparent in NPC1 mutant mice but not wild-type mice. This is true and both males and females.\nas §1"}, "[4]": {"settings": "two transgenic strains with NPC1 mutations"}, "[5]": {"settings": "NPC1 (I1061T/I1061T) mice, oral gavage, vs vehicle alone"}},
  "note": "Entries after “also recorded” stand apart in the source; their conditions may differ.",
  "data": [
    {"smiles": "C[C@@H](CO)CCC[C@@H](C)[C@H]1CC[C@H]2[C@@H]3CC=C4C[C@@H](O)CC[C@]4(C)[C@H]3CC[C@]12C", "note": "[27-HC, 27-hydroxycholesterol]", "values": [
      {"measurement": "Overall improvement for NPC1 mutant mice", "setting": "NPC mutant mice; mouse, in vivo", "result": "statistically-significant improvement"},
      {"measurement": "Lifespan of mutant mice", "setting": "NPC mutant mice; [4]", "result": "extends the lifespan of mutant mice significantly"},
      {"measurement": "Lysosomal tubulation in NPC mutant mice", "setting": "NPC mutant mice; [4]", "result": "rescues lysosomal tubulation"},
      {"measurement": "Onset, severity and progression of NPC disease", "setting": "NPC mutant mice; [4]", "result": "delays the onset, severity and progression of NPC disease"},
      {"measurement": "Benefit of 27-HC treatment (lifespan) in mice lacking StARD9", "setting": "[1]", "result": "the benefit of the 27-HC treatment was lost; also recorded: significantly less effective; also recorded: does not provide any benefit"},
      {"measurement": "Rescue of lysosomal tubulation in StARD9 mutant cells", "setting": "[2]", "result": "not StARD9 mutant cells"},
      {"measurement": "Lifespan (Kaplan-Meier)", "setting": "NPC1(−/−) mice; 10 mg/kg vs 0 mg/kg, p=0.0214", "result": "extended the lifespan of the mice; also recorded: Extension of lifespan was significant"},
      {"measurement": "Onset of symptoms", "setting": "NPC1(−/−) mice; vs vehicle alone", "result": "delayed the onset of symptoms"},
      {"measurement": "Purkinje cell preservation", "setting": "NPC1(−/−) mice; vs vehicle alone", "result": "preserved Purkinje cells"},
      {"measurement": "Severity of symptoms", "setting": "NPC1(−/−) mice; vs vehicle alone", "result": "reduced the severity of symptoms"},
      {"measurement": "Lifespan (Kaplan-Meier)", "setting": "[3]; NPC1 (I1061T/I1061T) mice, 5 mg/kg vs 0 mg/kg three times per week oral gavage, p=0.0108", "result": "extended the lifespan of the mice; also recorded: Extension of lifespan was significant"},
      {"measurement": "Lipid accumulation in livers", "setting": "[3]; NPC1 (I1061T/I1061T) mice, males and females", "result": "successful in reducing these lipid accumulations"},
      {"measurement": "Sex difference of treatment benefit", "setting": "[3]; NPC1 (I1061T/I1061T) mice, oral gavage", "result": "worked better in males than females"},
      {"measurement": "Onset of symptoms", "setting": "[3]; [5]", "result": "delayed the onset of symptoms"},
      {"measurement": "Severity of symptoms", "setting": "[3]; [5]", "result": "reduced the severity of symptoms"},
      {"measurement": "Dosage needed for reduction of liver lipid accumulations, females", "setting": "[3]; female NPC1 (I1061T/I1061T) mice", "result": 40, "unit": "mg/kg"},
      {"measurement": "Sufficiency of the highest dose used, livers", "setting": "[3]; females compared to males", "result": "not sufficient in females compared to males"},
      {"measurement": "Dosage needed for reduction of liver lipid accumulations, males", "setting": "[3]; male NPC1 (I1061T/I1061T) mice", "result": 10, "unit": "mg/kg"}
    ]}
  ]
}
